We go through one compound from patent US10806717B2, “Methods and compositions for improving cognitive function” (The Johns Hopkins University, priority 2013, dated 2020).

Series [1] concerns aMCI subjects. More on the design: species or system human. To be noted: in vivo.
For series [2] the following is noted: cited from earlier work.
Series [3] deals with aMCI subjects. As to the kind of experiment: Explicit 3-alternative forced choice task (lure stimuli). It is filed as in vivo, human. The procedure: As described above, the drug treatment period is the two weeks preceding Visit 1 or 2 (with the two week period preceding the other Visit being the placebo phase). […]
The activity of the subject's medial temporal lobe is measured by functional MRI during the subject's participation in an explicit 3-alternative forced choice task, where participants view novel, repeated and similar (“lure”) stimuli. The Psychophysics Toolbox extensions in Matlab 7.0 (The MathWorks, Natick, Mass.) is used for stimulus presentation and behavioral data collection. Stimuli are color photographs of common objects. Each participant undergoes a series of testing runs during the functional imaging sessions, each run consisting of a mix of three types of image pairs: similar pairs, identical pairs and unrelated foils. These image pairs are fully randomized throughout the run and presented individually as a series of images (see FIG. 10A). Participants are instructed to make a judgment as to whether each object seen is new, old or similar. Of critical interest are the participants' responses when presented with the second of the pair of similar objects (the “lure”; see FIG. 10B). The correct identification by the subject of lure stimuli as “similar,” provides behavioral evidence of pattern separation, i.e., the separation of similar experiences into distinct non-overlapping representations. […]
As described above, the drug treatment period is the two weeks preceding Visit 1 or 2 (with the two week period preceding the other Visit being the placebo phase). […] For the subjects receiving the 62.5 mg BID drug treatment, a quarter of a scored 250 mg tablet of levetiracetam is used to achieve a dose of 62.5 twice a day, i.e., 125 mg/day which is approximately 1.5 mg/kg/day.
The activity of the subject's medial temporal lobe is measured by functional MRI during the subject's participation in an explicit 3-alternative forced choice task, where participants view novel, repeated and similar (“lure”) stimuli. […]

In series [4] the test system is reelin in Entorhinal Cortex (EC2). Put plainly: In situ hybridization of reelin mRNA after chronic levetiracetam. To be noted: levetiracetam 10 mg/kg/day, osmotic minipumps, four weeks (28 days), aged-impaired rats; vs AI-VEH p=0.033. The class given is in vivo, rat.
Series [5] deals with aged-impaired (AI) rats. Put plainly: Radial Arm Maze task with one-hour delay, levetiracetam and/or valproate. It is filed as in vivo, rat. To be noted: for effective in reducing the number of errors: levetiracetam on its own.
Series [6] has as its system aMCI subjects. Put plainly: fMRI activity of medial temporal lobe subregions during memory judgments. The class given is in vivo, human.
The target of series [7] is synaptic vesicle protein 2A (SV2A) (Homo sapiens, UniProt Q7L0J3). Particulars: specific site in the CNS; cited from earlier work.

SMILES strings stand for the structures. Entries after “also recorded” stand apart in the source; their conditions may differ.

Sequence of synaptic vesicle protein 2A (SV2A) (Q7L0J3 whole entry, species assumed): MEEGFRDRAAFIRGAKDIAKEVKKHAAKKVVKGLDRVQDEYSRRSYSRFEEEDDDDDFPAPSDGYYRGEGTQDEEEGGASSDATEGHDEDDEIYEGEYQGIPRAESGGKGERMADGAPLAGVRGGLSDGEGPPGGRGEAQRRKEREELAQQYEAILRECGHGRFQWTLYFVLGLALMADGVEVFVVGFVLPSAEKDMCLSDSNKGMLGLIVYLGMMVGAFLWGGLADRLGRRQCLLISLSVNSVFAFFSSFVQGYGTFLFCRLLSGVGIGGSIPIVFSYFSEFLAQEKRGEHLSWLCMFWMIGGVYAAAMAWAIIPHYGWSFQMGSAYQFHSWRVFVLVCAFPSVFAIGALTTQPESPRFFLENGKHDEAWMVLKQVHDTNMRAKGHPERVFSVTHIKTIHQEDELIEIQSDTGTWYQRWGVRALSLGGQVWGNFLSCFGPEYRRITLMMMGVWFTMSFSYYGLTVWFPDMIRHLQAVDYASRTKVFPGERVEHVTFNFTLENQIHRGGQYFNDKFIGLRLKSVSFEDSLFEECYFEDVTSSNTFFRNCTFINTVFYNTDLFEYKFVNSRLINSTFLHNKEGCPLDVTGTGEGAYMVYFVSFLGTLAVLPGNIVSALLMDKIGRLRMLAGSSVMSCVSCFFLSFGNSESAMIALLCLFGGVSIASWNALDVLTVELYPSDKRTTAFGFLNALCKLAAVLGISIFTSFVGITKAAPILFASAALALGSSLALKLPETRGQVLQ

Regarding `CC[C@@H](C(N)=O)N1CCCC1=O` [levetiracetam, (2S)-2-(2-oxopyrrolidin-1-yl)butanamide], the “performance in Buschke Selective Reminding Test-Delayed Recall, Benton Visual Retention Test, Verbal Paired Associates Test-Recognition and -Delayed Recall” value in series [1] is recorded as “fail to rescue performance”. In addition, in series [2] (after oral administration), the absorption result was “rapidly and almost completely absorbed”. For the same compound, the “Plasma half-life expected in elderly” value in series [2] (elderly, due to decreased renal function) was 9 to 10 h. The “time of peak plasma concentrations” value in series [2] (following oral administration) is reported as “about 1 hour”. Also, the Plasma half-life result in series [2] (in vivo) is “approximately 7±1 hour”. Also, the “time to steady state” value in series [2] (multiple twice-daily dosing) is 2 days. The “effect of food on bioavailability” value in series [2] (oral) was “not affected by food”. In addition, the “performance in the memory task (similar vs old responses to lures)” value in series [3] (levetiracetam 62.5 mg BID for two weeks vs placebo, p=0.041) is listed as “improves significantly”; in series [3] (levetiracetam 125 mg twice a day for two weeks vs placebo, p=0.039) it was “improves significantly”; in series [3] (levetiracetam 250 mg BID for two weeks vs placebo, p=0.2396), “does not significantly improve”. In addition, the “reelin (mRNA expression) in entorhinal cortex” value in series [4] is given as “restores the levels of reelin; also recorded: significantly increased the expression of reelin”. The “effective doses in the animal model” value in series [5] (AI rats, given acutely) lay within 5 to 10 mg/kg. Also, the “performance of AI rats in the radial maze task” value in series [5] (levetiracetam 20 mg/kg) was “fails to improve the performance”. For the same compound, the “effective in reducing the number of errors” value was “not” in series [5] (1.25 mg/kg or 2.5 mg/kg i.p.) and “effective” in series [5] (5-10 mg/kg i.p.). Moreover, the “DG/CA3 hyperactivity during memory judgments” value in series [6] (levetiracetam 62.5 mg BID for two weeks, N=20) was “does not significantly reduce”; in series [6] (levetiracetam 250 mg BID for two weeks, N=17) it was “does not significantly reduce”. Further, the “entorhinal cortex (EC) activity during memory judgments” value in series [6] (levetiracetam 125 mg twice a day for two weeks vs placebo) is recorded as “increases EC activity”. In addition, the “DG/CA3 activity during lure stimuli correctly identified as similar” value in series [6] (levetiracetam 125 mg twice a day for two weeks vs placebo, p=0.037) was “reduces DG/CA3 hyper-activity”. The “binding to SV2A” value in series [7] is reported as “binds”.
